Molecular target: T1, vanilloid receptor 1 (VR1/TRPV1 receptor) (Homo sapiens, UniProt Q8NER1)
T1 construct: expressed in transfected cells; host or cells: CHO K1 cells (ECACC), stably transfected
Assay: VR1/TRPV1 receptor affinity, capsaicin stimulus (human)
Type: cell-based, human being
Set-up: key to (f) Ki (human being) [nM] Cap: result in words: AG=agonist; pAG=partial agonist; NE=no effect
Conditions: for Ki: Tables 8-12, read-out: (f) Ki (human being) [nM] Cap; for inhibition at 5 µM: Tables 8-12, read-out: (f) Ki (human being) [nM] Cap: inhibition (as a percentage)

T1 sequence (Q8NER1 whole entry): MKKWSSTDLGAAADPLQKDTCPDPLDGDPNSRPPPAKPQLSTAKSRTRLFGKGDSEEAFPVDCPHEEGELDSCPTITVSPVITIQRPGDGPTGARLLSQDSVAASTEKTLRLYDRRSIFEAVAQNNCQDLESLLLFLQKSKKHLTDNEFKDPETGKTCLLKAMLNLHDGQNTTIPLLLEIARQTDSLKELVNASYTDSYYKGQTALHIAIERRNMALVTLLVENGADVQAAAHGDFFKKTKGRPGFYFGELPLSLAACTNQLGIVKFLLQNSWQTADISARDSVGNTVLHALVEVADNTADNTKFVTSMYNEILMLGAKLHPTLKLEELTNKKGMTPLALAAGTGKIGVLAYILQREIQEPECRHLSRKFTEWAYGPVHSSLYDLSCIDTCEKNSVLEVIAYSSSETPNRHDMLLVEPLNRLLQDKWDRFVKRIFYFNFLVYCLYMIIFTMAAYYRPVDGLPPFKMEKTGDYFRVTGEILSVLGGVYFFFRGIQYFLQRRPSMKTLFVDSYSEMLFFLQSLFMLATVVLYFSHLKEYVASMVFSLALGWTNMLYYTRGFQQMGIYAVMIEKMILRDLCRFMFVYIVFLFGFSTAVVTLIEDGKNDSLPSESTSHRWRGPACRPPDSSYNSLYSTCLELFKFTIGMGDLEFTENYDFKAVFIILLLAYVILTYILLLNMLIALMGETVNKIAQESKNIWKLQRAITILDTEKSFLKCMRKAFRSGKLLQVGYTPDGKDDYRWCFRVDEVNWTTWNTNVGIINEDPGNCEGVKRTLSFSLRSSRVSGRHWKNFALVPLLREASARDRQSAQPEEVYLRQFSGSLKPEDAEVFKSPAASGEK

| Ki | Structure (SMILES) | other results |
| --- | --- | --- |
| 15 nM | CC(C)(C)c1cc(CNC(=O)Nc2ccc(N3CC(O)C3)c(F)c2)n(-c2cccc(Cl)c2)n1 [Example C7, 1-[[5-tert-Butyl-2-(3-chlorophenyl)-2H-pyrazol-3-yl]-methyl]-3-[3-fluoro-4-(3-hydroxy-azetidin-1-yl)-phenyl]-urea] | – |
| – | O=C(NCc1cc(C(F)(F)F)nn1-c1cccc(F)c1)Nc1ccc(N2CC(O)C2)c(F)c1 [Example C9, 1-[3-Fluoro-4-(3-hydroxy-azetidin-1-yl)-phenyl]-3-[[2-(3-fluorophenyl)-5-(trifluoromethyl)-2H-pyrazol-3-yl]-methyl]-urea] | inhibition at 5 µM: 50% |
| – | CC(C(=O)NCc1cc(C(C)(C)C)nn1-c1cccc(Cl)c1)c1ccc(S(C)(=O)=O)c(F)c1 (stereo not shown) [Example D1, N-[[5-tert-Butyl-2-(3-chlorophenyl)-2H-pyrazol-3-yl]-methyl]-2-(3-fluoro-4-methylsulfonyl-phenyl)-propionamide] | (f) Ki (human being) [nM] Cap: result in words (Tables 8-12): AG |
| 73 nM | CC(C(=O)NCc1cc(C(F)(F)F)nn1-c1cccc(Cl)c1)c1ccc(S(C)(=O)=O)c(F)c1 (stereo not shown) [Example D2, N-[[2-(3-Chlorophenyl)-5-(trifluoromethyl)-2H-pyrazol-3-yl]-methyl]-2-(3-fluoro-4-methylsulfonyl-phenyl)-propionamide] | – |
| – | CC(C(=O)NCc1cc(C(F)(F)F)nn1-c1cccc(F)c1)c1ccc(S(C)(=O)=O)c(F)c1 (stereo not shown) [Example D3, 2-(3-Fluoro-4-methylsulfonyl-phenyl)-N-[[2-(3-fluorophenyl)-5-(trifluoromethyl)-2H-pyrazol-3-yl]-methyl]-propionamide] | inhibition at 5 µM: 55% |
| 41 nM | CC(C(=O)NCc1cc(C(F)(F)F)nn1-c1ccc(F)c(Cl)c1)c1ccc(S(C)(=O)=O)c(F)c1 (stereo not shown) [Example D4, N-[[2-(3-Chloro-4-fluoro-phenyl)-5-(trifluoromethyl)-2H-pyrazol-3-yl]-methyl]-2-(3-fluoro-4-methylsulfonyl-phenyl)-propionamide] | – |
| 7 nM | CC(C(=O)NCc1cc(C(F)(F)F)nn1-c1cccc(Cl)c1)c1ccc(S(C)(=O)=O)c(Cl)c1 (stereo not shown) [Example D5, 2-(3-Chloro-4-methylsulfonyl-phenyl)-N-[[2-(3-chlorophenyl)-5-(trifluoromethyl)-2H-pyrazol-3-yl]-methyl]-propionamide] | – |
| 38 nM | CC(C(=O)NCc1cc(C(F)(F)F)nn1-c1cccc(Cl)c1)c1ccc(CS(C)(=O)=O)c(F)c1 (stereo not shown) [Example D6, N-[[2-(3-Chlorophenyl)-5-(trifluoromethyl)-2H-pyrazol-3-yl]-methyl]-2-[3-fluoro-4-(methylsulfonyl-methyl)-phenyl]-propionamide] | – |
| 27 nM | CC(C(=O)NCc1cc(C(C)(C)C)nn1-c1cccc(Cl)c1)c1ccc(CS(C)(=O)=O)c(F)c1 (stereo not shown) [Example D7, N-[[5-tert-Butyl-2-(3-chlorophenyl)-2H-pyrazol-3-yl]-methyl]-2-[3-fluoro-4-(methylsulfonyl-methyl)-phenyl]-propionamide] | – |
| 48 nM | CC(C(=O)NCc1cc(C(C)(C)C)nn1-c1ccc(F)c(Cl)c1)c1ccc(CS(C)(=O)=O)c(F)c1 (stereo not shown) [Example D8, N-[[5-tert-Butyl-2-(3-chloro-4-fluoro-phenyl)-2H-pyrazol-3-yl]-methyl]-2-[3-fluoro-4-(methylsulfonyl-methyl)-phenyl]-propionamide] | – |
| 30 nM | CC(C(=O)NCc1cc(C(C)(C)C)nn1-c1cccc(F)c1)c1ccc(CS(C)(=O)=O)c(F)c1 (stereo not shown) [Example D9, N-[[5-tert-Butyl-2-(3-fluorophenyl)-2H-pyrazol-3-yl]-methyl]-2-[3-fluoro-4-(methylsulfonyl-methyl)-phenyl]-propionamide] | – |
| 75 nM | CC(C(=O)NCc1cc(C(F)(F)F)nn1-c1cccc(F)c1)c1ccc(CS(C)(=O)=O)c(F)c1 (stereo not shown) [Example D10, 2-[3-Fluoro-4-(methylsulfonyl-methyl)-phenyl]-N-[[2-(3-fluorophenyl)-5-(trifluoromethyl)-2H-pyrazol-3-yl]-methyl]-propionamide] | – |
| 42 nM | CS(=O)(=O)CCc1ccc(NC(=O)NCc2cc(C3CC3)nn2-c2cccc(Cl)c2)cc1F [Example D26, 1-[[2-(3-Chlorophenyl)-5-cyclopropyl-2H-pyrazol-3-yl]-methyl]-3-[3-fluoro-4-(2-methylsulfonyl-ethyl)-phenyl]-urea] | – |
| 40 nM | CS(=O)(=O)CCc1ccc(NC(=O)NCc2cc(C(F)(F)F)nn2-c2cccc(Cl)c2)cc1F [Example D27, 1-[[2-(3-Chlorophenyl)-5-(trifluoromethyl)-2H-pyrazol-3-yl]-methyl]-3-[3-fluoro-4-(2-methylsulfonyl-ethyl)-phenyl]-urea] | – |
| 32 nM | CS(=O)(=O)CCc1ccc(NC(=O)NCc2cc(C(F)(F)F)nn2-c2ccc(F)c(Cl)c2)cc1F [Example D28, 1-[[2-(3-Chloro-4-fluoro-phenyl)-5-(trifluoromethyl)-2H-pyrazol-3-yl]-methyl]-3-[3-fluoro-4-(2-methylsulfonyl-ethyl)-phenyl]-urea] | – |
| 13 nM | CC(C)(C)c1cc(CNC(=O)Nc2ccc(CCS(C)(=O)=O)c(F)c2)n(-c2cccc(Cl)c2)n1 [Example D29, 1-[[5-tert-Butyl-2-(3-chlorophenyl)-2H-pyrazol-3-yl]-methyl]-3-[3-fluoro-4-(2-methylsulfonyl-ethyl)-phenyl]-urea] | – |
| 15 nM | CC(C)(C)c1cc(CNC(=O)Nc2ccc(CCS(C)(=O)=O)c(F)c2)n(-c2cc(F)cc(F)c2)n1 [Example D31, 1-[[5-tert-Butyl-2-(3,5-difluoro-phenyl)-2H-pyrazol-3-yl]-methyl]-3-[3-fluoro-4-(2-methylsulfonyl-ethyl)-phenyl]-urea] | – |
| 4 nM | CC(C)c1cccc(-n2nc(C(F)(F)F)cc2CNC(=O)Nc2ccc(CCS(C)(=O)=O)c(F)c2)c1 [Example D33, 1-[3-Fluoro-4-(2-methylsulfonyl-ethyl)-phenyl]-3-[[2-(3-isopropyl-phenyl)-5-(trifluoromethyl)-2H-pyrazol-3-yl]-methyl]-urea] | – |
| 24 nM | CCC(=O)c1ccc(C(C)C(=O)NCc2cc(C(F)(F)F)nn2-c2cccc(F)c2)cc1F (stereo not shown) [Example E1, N-[[2-(3-Fluorophenyl)-5-(trifluoromethyl)-2H-pyrazol-3-yl]-methyl]-2-(3-fluoro-4-propanoyl-phenyl)-propionamide] | – |
| 35 nM | CCC(=O)c1ccc(C(C)C(=O)NCc2cc(C(F)(F)F)nn2-c2cccc(OC)c2)cc1F (stereo not shown) [Example E2, 2-(3-Fluoro-4-propanoyl-phenyl)-N-[[2-(3-methoxyphenyl)-5-(trifluoromethyl)-2H-pyrazol-3-yl]-methyl]-propionamide] | – |
| 62 nM | CCC(=O)c1ccc(C(C)C(=O)NCc2cc(C(F)(F)F)nn2-c2ccc(F)c(F)c2)cc1F (stereo not shown) [Example E3, N-[[2-(3,4-Difluoro-phenyl)-5-(trifluoromethyl)-2H-pyrazol-3-yl]-methyl]-2-(3-fluoro-4-propanoyl-phenyl)-propionamide] | – |
| – | CC(C)(C)c1cc(CNC(=O)Nc2ccc(C(=O)N3CCOCC3)c(F)c2)n(-c2cccc(Cl)c2)n1 [Example E14, 1-[[5-tert-Butyl-2-(3-chlorophenyl)-2H-pyrazol-3-yl]-methyl]-3-[3-fluoro-4-(morpholine-4-carbonyl)-phenyl]-urea] | inhibition at 5 µM: 38% |
| – | CC(C(=O)NCc1cc(C(F)(F)F)nn1-c1cccc(Cl)c1)c1ccc(C(=O)N2CCOCC2)c(F)c1 (stereo not shown) [Example E16, N-[[2-(3-Chlorophenyl)-5-(trifluoromethyl)-2H-pyrazol-3-yl]-methyl]-2-[3-fluoro-4-(morpholine-4-carbonyl)-phenyl]-propionamide] | inhibition at 5 µM: 32% |
| – | CC(C(=O)NCc1cc(C(C)(C)C)nn1-c1cccc(Cl)c1)c1ccc(C(=O)N2CCOCC2)c(F)c1 (stereo not shown) [Example E17, N-[[5-tert-Butyl-2-(3-chlorophenyl)-2H-pyrazol-3-yl]-methyl]-2-[3-fluoro-4-(morpholine-4-carbonyl)-phenyl]-propionamide] | inhibition at 5 µM: 42% |
| 37 nM | O=C(NCc1cc(C(F)(F)F)nn1-c1cccc(Cl)c1)Nc1ccc(C(=O)NCCO)c(F)c1 [Example E18] | – |
| – | CN(C(=O)Nc1ccc(C(=O)NC2CCOCC2)c(F)c1)c1cc(C(F)(F)F)nn1-c1cccc(Cl)c1 [Example E22, 4-[[[2-(3-Chlorophenyl)-5-(trifluoromethyl)-2H-pyrazol-3-yl]-methyl-carbamoyl]amino]-2-fluoro-N-tetrahydro-pyran-4-yl-benzamide] | inhibition at 5 µM: 49% |
| – | CC(C(=O)N(C)c1cc(C(F)(F)F)nn1-c1cccc(Cl)c1)c1ccc(C(=O)NC2CCOCC2)c(F)c1 (stereo not shown) [Example E23, 4-[1-[[2-(3-Chlorophenyl)-5-(trifluoromethyl)-2H-pyrazol-3-yl]-methyl-carbamoyl]-ethyl]-2-fluoro-N-tetrahydro-pyran-4-yl-benzamide] | inhibition at 5 µM: 24.8% |
| 1 nM | CC(C(=O)NCc1cc(C(C)(C)C)nn1-c1cccc(Cl)c1)c1ccc(C(=O)Nc2ccc(F)cc2)c(F)c1 (stereo not shown) [Example E44, 4-[1-[[5-tert-Butyl-2-(3-chlorophenyl)-2H-pyrazol-3-yl]-methyl-carbamoyl]-ethyl-]-2-fluoro-N-(4-fluorophenyl)-benzamide] | – |
| 0.3 nM | CC(C(=O)NCc1cc(C(F)(F)F)nn1-c1cccc(Cl)c1)c1ccc(C(=O)Nc2ccc(F)cc2)c(F)c1 (stereo not shown) [Example E45, 4-[1-[[2-(3-Chlorophenyl)-5-(trifluoromethyl)-2H-pyrazol-3-yl]-methyl-carbamoyl]-ethyl]-2-fluoro-N-(4-fluorophenyl)-benzamide] | – |
| – | COc1cc(NC(=O)N(C)c2cc(C(C)(C)C)nn2-c2cccc(Cl)c2)ccc1C(=O)O [Example E56, 4-[[[5-tert-Butyl-2-(3-chlorophenyl)-2H-pyrazol-3-yl]-methyl-carbamoyl]amino]-2-methoxy-benzoic acid] | inhibition at 5 µM: 52% |

| Structure (SMILES) | Ki | other results |
| --- | --- | --- |
| CC(C(=O)NCc1cc(C(F)(F)F)nn1-c1cccc(Cl)c1)c1ccc(C(N)=O)c(F)c1 (stereo not shown) [Example E4, 4-[1-[[2-(3-Chlorphenyl)-5-(trifluormethyl)-2H-pyrazol-3-yl]-methyl-carbamoyl]-ethyl]-2-fluoro-benzamide] | 8 nM | – |

— US9624209B2, “Substituted phenylureas and phenylamides as vanilloid receptor ligands” (Gruenenthal GmbH, priority 2009, dated 2017)
